Data published in patent US20240109853A1 (Shanghai Yao Yuan Biotechnology Co., Ltd., priority 2020, published 2024).

Tests used:
[1] = tested on: polymicrobial sepsis induced by cecal ligation and puncture; test: Sepsis induced acute kidney injury model (cecal ligation and puncture, CLP); conditions: rat CLP, 20 mg/kg 2 hours prior to surgery; for kidney proinflammatory gene expression (IL6, TNFa, IL-1b, CCl2, KC): kidneys 24 hours post-surgery, Q-PCR; for survival: survival over 24 hours
Method: Survival was recorded over the following 24 hours.
24 hours post-surgery, the kidneys were collected for gene expression analysis by Q-PCR.
24 hours post-surgery, plasma MCP-1 concentration was measured by ELISA.
We used a rat CLP model to evaluate the effects of compounds described here on sepsis. Briefly, the rat cecum was ligated with sterile silk thread, and then cecum was punctured twice with a needle, gently squeezed to express a small amount of fecal material, then the abdominal incision was closed. […] In addition, at 24 hours post-surgery, the kidneys were collected for gene expression analysis by Q-PCR and plasma was collected for measurement of plasma MCP-1 concentrations by ELISA.

[2] = tested on: innate immunity gene expression in kidney; test: Inhibition of activated ALPK1 in kidney: innate immunity gene expression after ALPK1 agonist; format: in vivo, Sprague-Dawley (SD) rats; conditions: SD rats, 4, 10 or 25 mg/kg oral 2 hours prior to agonist ip, kidney 3 hours after agonist, RT-PCR
Method: FIG. 2: Treatment groups were administered 4, 10 or 25 mg/kg of the ALPK1 inhibitor A0176 2 hours prior to the agonist, D-glycero-D-manno-6-fluoro-heptose-1β-S-ADP.
To test the effects of the ALPK1 inhibitors on the expression of innate immunity genes activated upon ALPK1 activation, SD rats were orally administered ALPK1 inhibitors followed by activation of innate immunity genes by intraperitoneal administration of an ALPK1 agonist, D-glycero-D-manno-6-fluoro-heptose-1β-S-ADP. Kidney tissue was harvested and assayed for gene expression. Briefly, Twenty male Sprague-Dawley (SD) rats were randomly divided into five groups. The normal group was given vehicle (0.5% MC) orally. After 2 hours, PBS was given by ip injection. The control group was given vehicle (0.5% MC) orally. After 2 hours, D-glycero-D-manno-6-fluoro-heptose-1β-S-ADP (50 μpk) was given by ip injection. The other 3 groups were given the ALPK1 inhibitor A0176 (4, 10 and 25 mpk) orally. After 2 hours, D-glycero-D-manno-6-fluoro-heptose-1β-S-ADP (50 μpk) was given by ip injection. […] Quantitative PCR was conducted using AceQ qPCR SYBR Green Master Mix Kit (Vazyme, Nanjing, China) on the QuantStudio 5 applied biosystems (Thermo scientific, USA). The relative mRNA levels were calculated using the 2-ΔΔCT method, and HPRT was used as a reference for gene expression normalization. […]

[3] = tested on: ALPK1-dependent NFκB reporter gene activation in HEK293 cells stably expressing an NF-kB reporter (G9 cells); test: NFκB gene reporter alkaline phosphatase assay; format: cell-based; conditions: Homo sapiens, HEK293; read-out: NFkB assay IC50
Outline: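 Inhibition of ALPK1-driven NF-kB activation is measured as reduced reporter phosphatase activity after agonist challenge with D-glycero-D-manno-6-fluoro-heptose-1β-S-ADP. Cells receive serially diluted compound 30 min beforehand. Values are IC50s from non-linear regression.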

hALPK1-V1092A = hALPK1-V1092A (Homo sapiens (Human), UniProt Q96QP1, V1092A); test: cell-based
Method: Accordingly, we used IL-8 secretion as an indicator of activated ALPK1 inhibition in cells expressing these mutations.
Transfection was performed according to manufacturer's protocols (Lipofectamine™ 3000, ThermoFisher). Transfected cells were selected, seeded onto 96-well plates and treated with serial dilutions of the test compounds for 6.5 hr. Following treatment, cell viability was determined using a luminescent cell viability assay (Cell Counting-Lite Assay or “CCL Assay” from Vazyme Biotech Co., Ltd.) and cell free supernatants were collected and analyzed for IL-8 protein by IL-8 ELISA as described above.
Fresh medium and compound were added at 18 hours. Cell viability and IL-8 secretion were determined 6 hours after the second addition of compound, using the CCL assay and IL-8 ELISA as described above.

ALPK1 = ALPK1 (Homo sapiens (Human), UniProt Q96QP1); test: ALPK1 in vitro kinase assay (HTRF of TIFA phosphorylation); format: biochemical
ALPK1, sequence (Q96QP1 whole entry): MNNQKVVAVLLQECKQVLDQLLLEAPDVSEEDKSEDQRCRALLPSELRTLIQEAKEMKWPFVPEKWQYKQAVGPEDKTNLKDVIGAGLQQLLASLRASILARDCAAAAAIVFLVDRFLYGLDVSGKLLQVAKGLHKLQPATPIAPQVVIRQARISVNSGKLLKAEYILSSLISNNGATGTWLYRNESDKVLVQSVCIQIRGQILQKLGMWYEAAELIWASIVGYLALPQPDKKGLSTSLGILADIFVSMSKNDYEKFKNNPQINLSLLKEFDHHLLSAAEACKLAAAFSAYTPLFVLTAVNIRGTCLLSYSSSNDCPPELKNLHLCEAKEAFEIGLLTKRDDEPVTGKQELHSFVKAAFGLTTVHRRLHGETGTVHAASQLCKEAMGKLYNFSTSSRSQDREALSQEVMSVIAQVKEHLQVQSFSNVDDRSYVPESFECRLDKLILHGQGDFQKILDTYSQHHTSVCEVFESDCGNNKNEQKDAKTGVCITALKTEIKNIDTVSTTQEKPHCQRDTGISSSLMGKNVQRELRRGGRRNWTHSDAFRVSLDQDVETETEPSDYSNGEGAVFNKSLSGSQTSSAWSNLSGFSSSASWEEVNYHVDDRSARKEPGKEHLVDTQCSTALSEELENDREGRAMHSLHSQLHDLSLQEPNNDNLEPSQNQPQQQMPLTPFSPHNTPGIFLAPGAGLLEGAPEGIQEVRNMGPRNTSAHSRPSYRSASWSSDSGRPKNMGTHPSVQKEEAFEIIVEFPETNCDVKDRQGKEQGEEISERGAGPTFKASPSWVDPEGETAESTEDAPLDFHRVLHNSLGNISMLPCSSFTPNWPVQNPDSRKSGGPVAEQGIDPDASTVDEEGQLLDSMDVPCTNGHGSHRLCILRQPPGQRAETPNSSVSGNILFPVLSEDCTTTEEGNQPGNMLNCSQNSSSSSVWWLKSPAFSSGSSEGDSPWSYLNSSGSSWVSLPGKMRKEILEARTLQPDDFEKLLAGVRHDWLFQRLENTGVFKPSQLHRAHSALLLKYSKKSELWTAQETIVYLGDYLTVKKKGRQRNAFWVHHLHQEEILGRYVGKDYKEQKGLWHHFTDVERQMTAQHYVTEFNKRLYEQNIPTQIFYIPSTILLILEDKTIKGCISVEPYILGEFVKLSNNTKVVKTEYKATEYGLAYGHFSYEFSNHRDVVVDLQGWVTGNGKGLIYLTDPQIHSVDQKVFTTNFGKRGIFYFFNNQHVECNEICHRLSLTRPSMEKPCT

hALPK1-V1092A, sequence (Q96QP1 whole entry V1092A): as the sequence (Q96QP1 whole entry) above, with V1092A counted along it

| SMILES | kidney proinflammatory gene expression (IL6, TNFa, IL-1b, CCl2, KC) [1] | plasma MCP-1 concentration ([1]; plasma 24 hours post-surgery, ELISA) | survival [1] | kidney gene expression of innate immunity genes (MCP-1 (CCL-2), CCL-7, CXCL-1, CXCL-10, IL-1p, IL-6 mRNA) [2] | IC50 [3] | IC50 (hALPK1-V1092A) | IC50 (ALPK1) |
| --- | --- | --- | --- | --- | --- | --- | --- |
| C#C[C@@](C)(c1ccc(Cl)cc1)c1csc(NC(=O)NCCO)n1 [Example A0176] | decreased expression of kidney proinflammatory genes | improved the plasma MCP-1 levels | improved the animals' survival rate | dose-dependent inhibition of gene expression levels |  |  |  |
| C#C[C@@](C)(c1ccc(Cl)cc1)c1csc(NC(=O)NCCC(C)(C)O)n1 [Example A249, (S)-1-(4-(2-(4-chlorophenyl)but-3-yn-2-yl)thiazol-2-yl)-3-(3-hydroxy-3-methylbutyl)urea] |  |  |  |  | 670 nM | 11700 nM | 128 nM |
| C#C[C@](C)(c1ccc(Cl)cc1)c1csc(NC(N)=O)n1 [Example A251, (R)-1-(4-(2-(4-chlorophenyl)but-3-yn-2-yl)thiazol-2-yl)urea] |  |  |  |  | 1670 nM | 892 nM | 81 nM |
| C#C[C@@](C)(c1ccc(Cl)cc1)c1csc(NC(N)=O)n1 [Example A252, (S)-1-(4-(2-(4-chlorophenyl)but-3-yn-2-yl)thiazol-2-yl)urea] |  |  |  |  | 530 nM | 723 nM | 30 nM |
| C#CC(C)(c1ccc(Cl)cc1)c1csc(NC(=O)N2CC(N3CCNCC3)C2)n1 (stereo not drawn) [Example A261, N-(4-(2-(4-chlorophenyl)but-3-yn-2-yl)thiazol-2-yl)-3-(piperazin-1-yl)azetidine-1-carboxamide] |  |  |  |  | 510 nM | 573 nM | 83 nM |
| C#C[C@@](C)(c1ccc(Cl)cc1)c1csc(NC(=O)NCCS(N)(=O)=O)n1 [Example A289, 2-(3-(4-(2-(4-chlorophenyl)but-3-yn-2-yl)thiazol-2-yl)ureido)ethanesulfona-mide] |  |  |  |  | 470 nM | 439 nM | 54 nM |
| C#C[C@](C)(c1ccc(OC)cc1)c1csc(NC(=O)NCCS(N)(=O)=O)n1 [Example A310, 2-(3-(4-(2-(4-methoxyphenyl)but-3-yn-2-yl)thiazol-2-yl)ureido)ethanesulfona-mide] |  |  |  |  | 980 nM | 1910 nM | 223 nM |
| C#C[C@@](C)(c1ccc(OC)cc1)c1csc(NC(=O)NCCS(N)(=O)=O)n1 [Example A311, 2-(3-(4-(2-(4-methoxyphenyl)but-3-yn-2-yl)thiazol-2-yl)ureido)ethanesulfona-mide] |  |  |  |  | 660 nM | 1160 nM | 95 nM |
| C#C[C@@](C)(c1ccc(Cl)cc1)c1csc(NC(=O)c2c(F)cc(N3CCNCC3)cc2F)n1 [Example C008, (S)-N-(4-(2-(4-chlorophenyl)but-3-yn-2-yl)thiazol-2-yl)-2,6-difluoro-4-(piperazin-1-yl)benzamide] | decreased expression of kidney proinflammatory genes |  | improved the animals' survival rate |  |  |  |  |
